This passage reports IC50 results from patent US6602864B1, “Sulfonic acid or sulfonylamino N-(heteroaralkyl)-azaheterocyclylamide compounds” (Aventis Pharma Deutschland GmbH, priority 1996, dated 2003).

For orientation: pIC50 means the negative decadic logarithm of the IC50, by convention in mol/L.

This assay deals with Factor Xa (Homo sapiens, UniProt P00742). The assay can be described thus: Enzyme assay with purified enzyme and peptide-p-nitroanilide substrate (IC50, apparent Ki). The assay is classed as biochemical. To be noted: library product after deprotection with 20% TFA; read-out: IC50 against Factor Xa. On the procedure:
All enzyme assays are carried out at room temperature in 96-well microtiter plates using a final enzyme concentration of 1 nM. The concentrations of factor Xa and thrombin are determined by active site titration and the concentrations of all other enzymes are based on the protein concentration supplied by the manufacturer. Compounds according to the invention are dissolved in DMSO, diluted with their respective buffers and assayed at a maximal final DMSO concentration of 1.25%. Compound dilutions are added to wells containing buffer and enzyme and pre-equilibrated for […]. The enzyme reactions are initiated by the addition of substrate and the color developed from the hydrolysis of the peptide-p-nitroanilide substrates is monitored continuously for 5 minutes at 405 nm on a Vmax microplate reader (Molecular Devices). Under these conditions, less than 10% of the substrate is utilized in all assays. […] The apparent Ki values are then determined according to the Cheng-Prusoff equation (IC50=Ki [1+[S]/Km]) assuming competitive inhibition kinetics.

SMILES strings stand for the structures. pIC50: −log10 of the molar value. Counter-ions that a name gives are not always drawn. Some results are limits rather than exact numbers.

Factor Xa, sequence (P00742 235-488 limits assumed): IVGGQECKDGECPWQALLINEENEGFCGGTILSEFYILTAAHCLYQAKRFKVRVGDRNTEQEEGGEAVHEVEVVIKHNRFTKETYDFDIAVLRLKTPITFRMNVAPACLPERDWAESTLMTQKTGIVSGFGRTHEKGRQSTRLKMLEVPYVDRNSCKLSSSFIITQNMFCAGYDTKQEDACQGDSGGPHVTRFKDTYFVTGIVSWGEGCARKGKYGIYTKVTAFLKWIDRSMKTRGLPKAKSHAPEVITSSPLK
Factor Xa, sequence (P00742 41-179 partner limits assumed): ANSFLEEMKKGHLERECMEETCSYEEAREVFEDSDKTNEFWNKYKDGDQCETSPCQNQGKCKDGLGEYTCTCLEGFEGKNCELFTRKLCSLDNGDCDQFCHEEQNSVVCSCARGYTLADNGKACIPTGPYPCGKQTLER

As to `O=C1[C@@H](NS(=O)(=O)c2cc3ccc(Cl)cc3s2)CCN1Cc1cc2ncccc2[nH]1` [Example 46, 6-Chloro-benzo[b]thiophene-2-sulfonic Acid [2-oxo-1-(1H-Pyrrolo[3,2-b]pyridin-2-ylmethyl)-pyrrolidin-3-(S)-yl]-amide Trifluoroacetate], the negative logarithm of the IC50 (pIC50) is > 6.30.
